# Where “and” joins values, the source holds several entries; their conditions need not be identical. Identical values can stand only once.
# Tested on: BALB/3T3 clone A31
# Assay: in vitro 3T3 NRU phototoxicity test
# Type: cell-based
# Settings: for PIF (Photo irritation factor): calculated from IC50 with and without UV (Phototox 2.6)
# Experimental: This test was to evaluate phototoxicity after treating cells of BALB/3T3 clone A31 with a sample in the in vitro 3T3 NRU phototoxicity test. The phototoxicity was identified by evaluating cell viability, IC50 according to the presence or absence of light irradiation, and phototoxicity according to concentration response [photo irritation factor (PIF), and mean photo effect (MPE)].
# In addition, as a negative control group, PBS diluted in DMEM was used.
# Each of test substances was dissolved in PBS and diluted in steps at […] 2.
# UVA (315-400 nm) causing a phototoxic reaction by activating chemical materials without toxicity to cells was irradiated, and the amount of light was 5 J/cm^2.
# 100 μl of cell suspension (1×10^4 cells/well) and medium were dispensed into two 96 well plates per group, and the cells were cultured for 24 hours in a cell incubator at 37° C. and 5% CO^2.
# After removing the medium, the cells were washed once with 150 μl of warm PBS.
# The UV irradiation plate was irradiated with UVA at a light intensity of 5 J/cm^2, and while UV was irradiated, the non-irradiated plate was shielded with aluminum foil and left at room temperature. After removing the solution, washing was performed twice with 150 μl of warm PBS. 100 μl of the medium was dispensed and the cells were cultured for 20±2 hours in a cell incubator at 37° C. and 5% CO2.
# The growth and morphology of the cells were observed using a microscope, the medium was removed therefrom, and then the cells were washed once with 150 μl of warm PBS. After dispensing 100 μl of neutral red medium, the cells were incubated for 3 hours in a cell incubator at 37° C. and 5% CO2. After removing the neutral red medium, the cells were washed once with 150 μl of warm PBS. 150 μl of neutral red extract was dispensed, and the plate was stirred for 10 minutes while light was shielded.
# Absorbance was measured at a wavelength of 540 nm by using a multi-channel microplate reader.
# Phototoxicity was judged by calculating PIF and MPE values using IC50 according to the presence or absence of light irradiation.
# PIF and MPE values were calculated from the measured absorbance values by using the software (Phototox 2.6, ZEBET at the BFR, Berlin Germany), and no statistical method was performed.
smiles,measurement,setting,value
CN(C)CCCN1c2ccccc2Sc2ccc(Cl)cc21 [CPZ],Cell viability (% of NC),"UV (+), 0.04 μg/mL",102.67 % of NC
same,Cell viability (% of NC),"UV (+), 0.08 μg/mL",89.09 % of NC
same,Cell viability (% of NC),"UV (+), 0.16 μg/mL",98.75 % of NC
same,Cell viability (% of NC),"UV (+), 0.31 μg/mL",106.73 % of NC
same,Cell viability (% of NC),"UV (+), 0.63 μg/mL",103.10 % of NC
same,Cell viability (% of NC),"UV (+), 2.5 μg/mL",11.51 % of NC
same,Cell viability (% of NC),"UV (+), 5 μg/mL",12.32 % of NC
same,"IC50 (50% inhibitory concentration, cell viability)","UV (+), UVA 5 J/cm^2, listed as PC",1.650 µg/mL
same,Cell viability (% of NC),"UV (−), 1.56 μg/mL",109.65 % of NC
same,Cell viability (% of NC),"UV (−), 3.13 μg/mL",103.07 % of NC
same,Cell viability (% of NC),"UV (−), 6.25 μg/mL",114.87 % of NC
same,Cell viability (% of NC),"UV (−), 25 μg/mL",65.55 % of NC
same,Cell viability (% of NC),"UV (−), 50 μg/mL",9.50 % of NC
same,Cell viability (% of NC),"UV (−), 100 μg/mL",9.37 % of NC
same,Cell viability (% of NC),"UV (−), 200 μg/mL",9.31 % of NC
same,"IC50 (50% inhibitory concentration, cell viability)","UV (−), UV not irradiated, listed as PC",28.043 µg/mL
same,PIF (Photo irritation factor),listed as PC,17.144
same,PIF (Photo irritation factor),listed as positive control material,17.1444 and 17.144
same,MPE (Mean photo effect),calculated from concentration response with and without UV (Phototox 2.6),0.459

# Reference: patent US20230220122A1, “METHOD FOR PRODUCTION OF FUNCTIONAL POLYSACCHARIDE AND COSMETIC COMPOSITION” (CARBOEXPERT INC., priority 2019, published 2023)
